Source: the supplement of paper PMC13380429

Legend:
Conditions in all cases: 72 h
Caco-2 [1] = assay: drug sensitivity score (DSS) for viability; higher = more toxic; extreme values may be limits of the assay
U2OS [2] = assay: as above
HepG2 [3] = assay: as above
Calu-3 [4] = assay: as above
Vero E6 [5] = assay: as above
Caco-2 [6] = assay: relative viability EC50 (midpoint between 100% and the lowest measured viability); higher = less toxic
U2OS [7] = assay: as above
HepG2 [8] = assay: as above
Calu-3 [9] = assay: as above
Vero E6 [10] = assay: as above
Caco-2 [11] = assay: cell viability relative to DMSO; higher = less toxic
U2OS [12] = assay: as above
HepG2 [13] = assay: as above
Calu-3 [14] = assay: as above
Vero E6 [15] = assay: as above

SMILES | drug sensitivity score (Caco-2 [1]) | drug sensitivity score (U2OS [2]) | drug sensitivity score (HepG2 [3]) | drug sensitivity score (Calu-3 [4]) | drug sensitivity score (Vero E6 [5]) | relative viability EC50 (Caco-2 [6]) [µM] | relative viability EC50 (U2OS [7]) [µM] | relative viability EC50 (HepG2 [8]) [µM] | relative viability EC50 (Calu-3 [9]) [µM] | relative viability EC50 (Vero E6 [10]) [µM] | cell viability (Caco-2 [11]; 1 nM) [%] | cell viability (Caco-2 [11]; 10 nM) [%] | cell viability (Caco-2 [11]; 100 nM) [%] | cell viability (Caco-2 [11]; 1000 nM) [%] | cell viability (Caco-2 [11]; 10000 nM) [%] | cell viability (U2OS [12]; 1 nM) [%] | cell viability (U2OS [12]; 10 nM) [%] | cell viability (U2OS [12]; 100 nM) [%] | cell viability (U2OS [12]; 1000 nM) [%] | cell viability (U2OS [12]; 10000 nM) [%] | cell viability (HepG2 [13]; 1 nM) [%] | cell viability (HepG2 [13]; 10 nM) [%] | cell viability (HepG2 [13]; 100 nM) [%] | cell viability (HepG2 [13]; 1000 nM) [%] | cell viability (HepG2 [13]; 10000 nM) [%] | cell viability (Calu-3 [14]; 1 nM) [%] | cell viability (Calu-3 [14]; 10 nM) [%] | cell viability (Calu-3 [14]; 100 nM) [%] | cell viability (Calu-3 [14]; 1000 nM) [%] | cell viability (Calu-3 [14]; 10000 nM) [%] | cell viability (Vero E6 [15]; 1 nM) [%] | cell viability (Vero E6 [15]; 10 nM) [%] | cell viability (Vero E6 [15]; 100 nM) [%] | cell viability (Vero E6 [15]; 1000 nM) [%] | cell viability (Vero E6 [15]; 10000 nM) [%]
Cn1ccnc1S [methimazole] | 0 | 0 | 0 | 0 | 0 | > 10 | > 10 | > 10 | > 10 | > 10 | 99.3 | 84.3 | 99.7 | 86.5 | 101 | 98 | 101 | 98.7 | 99.8 | 98.5 | 109 | 95.4 | 109 | 81.7 | 101 | 93.9 | 97.3 | 100 | 100 | 94.5 | 104 | 99.3 | 102 | 106 | 101
C[C@H]1C[C@@H]2[C@H]([C@@H](O)C[C@@]3(C)[C@H]2CC[C@]3(O)C(=O)COC(=O)CCC(=O)O)[C@@]2(C)C=CC(=O)C=C12 [methylprednisolone-sodium-succinate] | 0 | 0 | 0 | 0 | 0 | > 10 | > 10 | > 10 | > 10 | > 10 | 104 | 94.6 | 98.3 | 99.6 | 92.5 | 99.2 | 93.8 | 95 | 92.5 | 93.9 | 98.2 | 101 | 89.6 | 103 | 91.2 | 108 | 99 | 88.8 | 91.2 | 122 | 100 | 103 | 101 | 96 | 98.2
C[C@](N)(Cc1ccc(O)cc1)C(=O)O [metirosine] | 0 | 0 | 0 | 0 | 0 | > 10 | > 10 | > 10 | > 10 | > 10 | 97.7 | 96.9 | 93.5 | 88.1 | 94.8 | 101 | 96 | 101 | 96 | 99.5 | 86.6 | 97.3 | 96.4 | 97.1 | 91.4 | 112 | 113 | 106 | 97.3 | 99.5 | 95.8 | 94.8 | 95.1 | 95.9 | 96.4
N=C1NC(=O)/C(=C/c2ccc(O)cc2)S1 [mirin] | 0 | 0 | 0 | 0.1 | 0 | > 10 | > 10 | > 10 | > 10 | > 10 | 95 | 97.8 | 101 | 97.6 | 96.2 | 95.3 | 101 | 97.5 | 99.6 | 97.9 | 98.3 | 91.1 | 95.2 | 98 | 96.8 | 89.9 | 105 | 94.8 | 93.4 | 87.8 | 99.2 | 96.2 | 96.5 | 93.3 | 104
O=C1c2c(O)ccc(O)c2C(=O)c2c(NCCNCCO)ccc(NCCNCCO)c21 [mitoxantrone] | 10.7 | 14.6 | 21.6 | 14.6 | 13.9 | 0.565 | 0.514 | 0.11 | 0.15 | 0.35 | 93.3 | 96.5 | 86.2 | 53 | 22.3 | 95.8 | 102 | 88.7 | 30.6 | 0.7 | 93.1 | 82.4 | 53.2 | 21.8 | 1.7 | 104 | 98.4 | 65.1 | 46.7 | 28.9 | 98.8 | 96 | 66.5 | 51.4 | 13.6
CC1(C)CNc2cc(NC(=O)c3cccnc3NCc3ccncc3)ccc21 [motesanib] | 0 | 0 | 0.1 | 0 | 0 | > 10 | > 10 | > 10 | > 10 | > 10 | 94.6 | 95.5 | 96.8 | 92.1 | 93.2 | 103 | 96.7 | 97.9 | 98.9 | 96.8 | 95.9 | 94 | 97.4 | 93.5 | 84.9 | 111 | 99.6 | 110 | 110 | 108 | 97.3 | 102 | 94.9 | 94 | 96.9
CCCc1c2oc(C(=O)O)cc(=O)c2cc2c(=O)cc(C(=O)O)n(CC)c12 [nedocromil] | 0 | 0 | 0 | 0 | 0 | > 10 | > 10 | > 10 | > 10 | > 10 | 98.3 | 99.8 | 97.9 | 105 | 100 | 102 | 106 | 99.4 | 104 | 97.1 | 113 | 86.5 | 91.5 | 90.6 | 100 | 102 | 99.4 | 103 | 107 | 98.4 | 121 | 100 | 115 | 95.7 | 109
CC(=O)C(=Cc1cc(O)c(O)c([N+](=O)[O-])c1)C(C)=O [nitecapone] | 0 | 0 | 0 | 0 | 0 | > 10 | > 10 | > 10 | > 10 | > 10 | 94.7 | 92.1 | 99.9 | 95.7 | 96.4 | 98.8 | 102 | 96.6 | 103 | 95.6 | 103 | 94 | 96.5 | 98.4 | 93.7 | 97.5 | 93.7 | 105 | 109 | 110 | 109 | 107 | 105 | 98.7 | 105
CC1(C)CC[C@]2(C(=O)O)CC[C@]3(C)C(=CC[C@@H]4[C@@]5(C)CC[C@H](O)C(C)(C)[C@@H]5CC[C@]43C)[C@@H]2C1 [oleanolic-acid] | 0 | 0 | 0 | 0 | 0 | > 10 | > 10 | > 10 | > 10 | > 10 | 104 | 97.1 | 93 | 104 | 95.6 | 95.2 | 98.1 | 94.4 | 102 | 94.5 | 106 | 96.2 | 89.9 | 99.9 | 94.7 | 109 | 110 | 98.3 | 109 | 89.8 | 96.3 | 94.7 | 94.9 | 95.3 | 95.3
Cc1[nH]c(=O)c(C#N)cc1-c1ccc2nccn2c1 [olprinone] | 0 | 0 | 0 | 0 | 0 | > 10 | > 10 | > 10 | > 10 | > 10 | 98.7 | 99.6 | 91.2 | 92 | 94.8 | 105 | 102 | 101 | 99.9 | 102 | 93.2 | 102 | 103 | 104 | 104 | 107 | 112 | 93.2 | 104 | 98.3 | 98.5 | 106 | 94.2 | 102 | 96.7
Cc1ncc([N+](=O)[O-])n1CC(O)CCl (stereo not given) [ornidazole] | 0 | 0 | 0 | 0 | 0 | > 10 | > 10 | > 10 | > 10 | > 10 | 103 | 101 | 99.1 | 102 | 98.4 | 91.3 | 97.1 | 91.8 | 95.8 | 102 | 101 | 98 | 91.6 | 107 | 99.7 | 99.9 | 95.1 | 93.8 | 96.1 | 108 | 101 | 96.6 | 97.4 | 96 | 104
O=C1CCCN1CC#CCN1CCCC1 [oxotremorine-sesquifumarate] | 0 | 0 | 0.9 | 0 | 0 | > 10 | > 10 | > 10 | > 10 | > 10 | 110 | 99.1 | 94.7 | 103 | 98.3 | 97 | 94.3 | 95.3 | 100 | 102 | 101 | 96 | 104 | 94.9 | 82.6 | 96 | 96 | 91.9 | 105 | 101 | 105 | 105 | 104 | 93.8 | 92.8
CCCCOc1cc(C(=O)OCCN(CC)CC)ccc1N [oxybuprocaine] | 0 | 0 | 0 | 0 | 0 | > 10 | > 10 | > 10 | > 10 | > 10 | 106 | 96.9 | 98.7 | 100 | 100 | 104 | 96.7 | 105 | 101 | 101 | 105 | 117 | 95.7 | 97.8 | 90 | 96 | 106 | 110 | 107 | 98.7 | 103 | 105 | 101 | 102 | 97.9
Oc1nc(O)c2cn[nH]c2n1 [oxypurinol] | 0 | 0 | 0 | 0 | 0 | > 10 | > 10 | > 10 | > 10 | > 10 | 107 | 100 | 98 | 97.7 | 97.1 | 101 | 102 | 93.6 | 99.5 | 99.8 | 108 | 86.2 | 104 | 101 | 96 | 95.6 | 108 | 97.2 | 107 | 94.6 | 96.1 | 103 | 98.5 | 101 | 100
